Assay results: the NIST ThermoML archive (doi:10.1021/je300280s)
“And” between values parts separate entries of the source, which are not always exact repeats. Equal values may be shown once. Numbers after ± are expanded uncertainties.

How the values were obtained:
[1] = 101.33 kPa, Liquid, Vibrating tube method
[2] = excess molar enthalpy (molar enthalpy of mixing); xn = mol fraction of the nth substance listed; settings: 101.3 kPa, Liquid, Flow calorimetry
[3] = xn = mol fraction of the nth substance listed; settings: 101.3 kPa, Liquid, Vibrating tube method

Structure (SMILES): CC(=O)C(C)=O [2,3-butanedione]
- mass density ([1]; 288.15 K): 998.09 ± 0.27 kg/m3
- mass density ([1]; 293.15 K): 991.78 ± 0.27 kg/m3
- mass density ([1]; 298.15 K): 985.5 ± 0.27 kg/m3
- mass density ([1]; 303.15 K): 979.18 ± 0.27 kg/m3
- mass density ([1]; 308.15 K): 972.83 ± 0.27 kg/m3
- mass density ([1]; 313.15 K): 966.48 ± 0.27 kg/m3
- mass density ([1]; 318.15 K): 960.08 ± 0.27 kg/m3

Structure (SMILES): CC/C=C\CCO [(Z)-3-hexen-1-ol]
- mass density ([1]; 288.15 K): 856.22 ± 0.68 kg/m3
- mass density ([1]; 293.15 K): 852.44 ± 0.68 kg/m3
- mass density ([1]; 298.15 K): 848.64 ± 0.67 kg/m3
- mass density ([1]; 308.15 K): 840.99 ± 0.67 kg/m3
- mass density ([1]; 318.15 K): 833.27 ± 0.66 kg/m3

Structure (SMILES): CC/C=C\CCO [(Z)-3-hexen-1-ol] + O
- excess molar enthalpy ([2]; 288.15 K, x1 = 0.000611): -0.00142 ± 0.000196 kcal/mol
- excess molar enthalpy ([2]; 288.15 K, x1 = 0.000916): -0.0021 ± 0.000201 kcal/mol
- excess molar enthalpy ([2]; 288.15 K, x1 = 0.001221): -0.00278 ± 0.000206 kcal/mol
- excess molar enthalpy ([2]; 288.15 K, x1 = 0.001526): -0.00344 ± 0.00022 kcal/mol
- excess molar enthalpy ([2]; 288.15 K, x1 = 0.001831): -0.0041 ± 0.000234 kcal/mol
- excess molar enthalpy ([2]; 288.15 K, x1 = 0.002135): -0.00473 ± 0.000239 kcal/mol
- excess molar enthalpy ([2]; 298.15 K, x1 = 0.00061): -0.000963 ± 0.000194 kcal/mol
- excess molar enthalpy ([2]; 298.15 K, x1 = 0.000915): -0.00143 ± 0.000196 kcal/mol
- excess molar enthalpy ([2]; 298.15 K, x1 = 0.00122): -0.00187 ± 0.000201 kcal/mol
- excess molar enthalpy ([2]; 298.15 K, x1 = 0.001524): -0.00231 ± 0.000203 kcal/mol
- excess molar enthalpy ([2]; 298.15 K, x1 = 0.001828): -0.00275 ± 0.000206 kcal/mol
- excess molar enthalpy ([2]; 298.15 K, x1 = 0.002132): -0.00316 ± 0.000213 kcal/mol
- excess molar enthalpy ([2]; 308.15 K, x1 = 0.000306): -0.00028 ± 0.000186 kcal/mol
- excess molar enthalpy ([2]; 308.15 K, x1 = 0.000611): -0.000528 ± 0.000189 kcal/mol
- excess molar enthalpy ([2]; 308.15 K, x1 = 0.000612): -0.000533 ± 0.000189 kcal/mol
- excess molar enthalpy ([2]; 308.15 K, x1 = 0.000916): -0.000786 ± 0.000191 kcal/mol
- excess molar enthalpy ([2]; 308.15 K, x1 = 0.000918): -0.000789 ± 0.000191 kcal/mol
- excess molar enthalpy ([2]; 308.15 K, x1 = 0.001221): -0.00102 ± 0.000194 kcal/mol
- excess molar enthalpy ([2]; 308.15 K, x1 = 0.001224): -0.00102 ± 0.000194 kcal/mol
- excess molar enthalpy ([2]; 308.15 K, x1 = 0.001526): -0.00125 ± 0.000196 kcal/mol
- excess molar enthalpy ([2]; 308.15 K, x1 = 0.001529): -0.00126 ± 0.000196 kcal/mol
- excess molar enthalpy ([2]; 308.15 K, x1 = 0.001835): -0.00146 ± 0.000196 kcal/mol
- excess molar enthalpy ([2]; 318.15 K, x1 = 0.000611): -0.000141 ± 0.000186 kcal/mol
- excess molar enthalpy ([2]; 318.15 K, x1 = 0.000612): -0.000139 ± 0.000186 kcal/mol
- excess molar enthalpy ([2]; 318.15 K, x1 = 0.000917): -0.000198 kcal/mol and -0.000194 kcal/mol
- excess molar enthalpy ([2]; 318.15 K, x1 = 0.001222): -0.000241 ± 0.000186 kcal/mol
- excess molar enthalpy ([2]; 318.15 K, x1 = 0.001223): -0.000239 ± 0.000186 kcal/mol
- excess molar enthalpy ([2]; 318.15 K, x1 = 0.001527): -0.00028 ± 0.000186 kcal/mol
- excess molar enthalpy ([2]; 318.15 K, x1 = 0.001528): -0.000284 ± 0.000186 kcal/mol
- excess molar enthalpy ([2]; 318.15 K, x1 = 0.001832): -0.000308 ± 0.000186 kcal/mol
- excess molar enthalpy ([2]; 318.15 K, x1 = 0.001833): -0.000311 ± 0.000186 kcal/mol
- mass density ([3]; 288.15 K, x1 = 0.000611): 998.763 ± 0.033 kg/m3
- mass density ([3]; 288.15 K, x1 = 0.000916): 998.596 ± 0.033 kg/m3
- mass density ([3]; 288.15 K, x1 = 0.001221): 998.432 ± 0.033 kg/m3
- mass density ([3]; 288.15 K, x1 = 0.001526): 998.27 ± 0.033 kg/m3
- mass density ([3]; 288.15 K, x1 = 0.001831): 998.106 ± 0.033 kg/m3
- mass density ([3]; 288.15 K, x1 = 0.002135): 997.95 ± 0.033 kg/m3
- mass density ([3]; 298.15 K, x1 = 0.00061): 996.68 ± 0.034 kg/m3
- mass density ([3]; 298.15 K, x1 = 0.000915): 996.493 ± 0.034 kg/m3
- mass density ([3]; 298.15 K, x1 = 0.00122): 996.319 ± 0.034 kg/m3
- mass density ([3]; 298.15 K, x1 = 0.001524): 996.139 ± 0.035 kg/m3
- mass density ([3]; 298.15 K, x1 = 0.001828): 995.963 ± 0.035 kg/m3
- mass density ([3]; 298.15 K, x1 = 0.002132): 995.788 ± 0.036 kg/m3
- mass density ([3]; 308.15 K, x1 = 0.000306): 993.834 ± 0.036 kg/m3
- mass density ([3]; 308.15 K, x1 = 0.000611): 993.642 ± 0.037 kg/m3
- mass density ([3]; 308.15 K, x1 = 0.000612): 993.637 ± 0.037 kg/m3
- mass density ([3]; 308.15 K, x1 = 0.000916): 993.442 ± 0.13 kg/m3
- mass density ([3]; 308.15 K, x1 = 0.000918): 993.441 ± 0.13 kg/m3
- mass density ([3]; 308.15 K, x1 = 0.001221): 993.253 ± 0.12 kg/m3
- mass density ([3]; 308.15 K, x1 = 0.001224): 993.253 ± 0.096 kg/m3
- mass density ([3]; 308.15 K, x1 = 0.001526): 993.064 ± 0.15 kg/m3
- mass density ([3]; 308.15 K, x1 = 0.001529): 993.059 ± 0.14 kg/m3
- mass density ([3]; 308.15 K, x1 = 0.001831): 992.912 ± 0.14 kg/m3
- mass density ([3]; 308.15 K, x1 = 0.001835): 992.883 ± 0.13 kg/m3
- mass density ([3]; 318.15 K, x1 = 0.000611): 989.794 ± 0.039 kg/m3
- mass density ([3]; 318.15 K, x1 = 0.000612): 989.796 ± 0.039 kg/m3
- mass density ([3]; 318.15 K, x1 = 0.000917): 989.578 ± 0.039 kg/m3 and 989.591 ± 0.039 kg/m3
- mass density ([3]; 318.15 K, x1 = 0.001222): 989.38 ± 0.04 kg/m3
- mass density ([3]; 318.15 K, x1 = 0.001223): 989.388 ± 0.04 kg/m3
- mass density ([3]; 318.15 K, x1 = 0.001527): 989.183 ± 0.04 kg/m3
- mass density ([3]; 318.15 K, x1 = 0.001528): 989.184 ± 0.04 kg/m3
- mass density ([3]; 318.15 K, x1 = 0.001832): 988.988 ± 0.04 kg/m3
- mass density ([3]; 318.15 K, x1 = 0.001833): 988.984 ± 0.04 kg/m3
- mass density ([3]; 318.15 K, x1 = 0.002137): 988.803 ± 0.04 kg/m3 and 988.815 ± 0.04 kg/m3

Structure (SMILES): CCCC(=O)OC [methyl butanoate]
- mass density ([1]; 288.15 K): 903.34 ± 0.27 kg/m3
- mass density ([1]; 293.15 K): 897.88 ± 0.27 kg/m3
- mass density ([1]; 298.15 K): 892.38 ± 0.27 kg/m3
- mass density ([1]; 303.15 K): 886.86 ± 0.27 kg/m3
- mass density ([1]; 308.15 K): 881.3 ± 0.27 kg/m3
- mass density ([1]; 313.15 K): 875.74 ± 0.27 kg/m3
- mass density ([1]; 318.15 K): 870.14 ± 0.27 kg/m3

Structure (SMILES): CCCOC(C)=O [propyl ethanoate]
- mass density ([1]; 288.15 K): 893.2 ± 0.2 kg/m3
- mass density ([1]; 298.15 K): 882.05 ± 0.2 kg/m3
- mass density ([1]; 308.15 K): 870.87 ± 0.2 kg/m3
- mass density ([1]; 318.15 K): 859.52 ± 0.2 kg/m3
